Data on 11 molecules can be found in publication PMC10940605, “Design, synthesis and in vitro anticancer activity of some new lomefloxacin derivatives” (Scientific Reports, 2024).

The subject of one assay is HL-60(TB). Put plainly: NCI-60 SRB screen. The class given is cell-based. As to conditions: Homo sapiens, 10^–5 Molar, read-out: Percent growth inhibition.
A further assay has as its system RPMI-8226. Description: NCI-60 SRB screen. The class given is cell-based. Conditions: Homo sapiens; RPMI-8226, 10^–5 Molar; read-out: Percent growth inhibition.
The next assay relates to IGROV1. Put plainly: NCI-60 SRB screen. The class given is cell-based. Conditions: Homo sapiens, IGROV-1; IGROV1, 10^–5 Molar; read-out: Percent growth inhibition. An outline of the steps:
(§1)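 Compounds were evaluated at one concentration (10^−5 M) against the cell lines over 48 h. Cell mass was measured by sulforhodamine B staining after trichloroacetic acid fixation, with growth expressed relative to time-zero and control cultures.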

The subject of a further assay is MDA-MB-435. Description: NCI-60 SRB screen. The class given is cell-based. As to conditions: Homo sapiens; MDA-MB-435, 10^–5 Molar; read-out: Percent growth inhibition. In short, it runs like this: as §1
The test system of another assay is OVCAR-4. Put plainly: NCI-60 SRB screen. The class given is cell-based. Conditions: Homo sapiens; OVCAR-4, 10^–5 Molar; read-out: Percent growth inhibition. In short, it runs like this:
as §1

Another assay concerns SK-MEL-28. Put plainly: NCI-60 SRB screen. The class given is cell-based. Conditions: Homo sapiens; SK-MEL-28, 10^–5 Molar; read-out: Percent growth inhibition. In short, it runs like this:
as §1

A further assay relates to SK-MEL-2. Description: NCI-60 SRB screen. Type of assay: cell-based. Conditions: Homo sapiens; SK-MEL-2, 10^–5 Molar; read-out: Percent growth inhibition. In short, it runs like this: as §1
The subject of another assay is SN12C. Description: NCI-60 SRB screen. Type of assay: cell-based. As to conditions: Homo sapiens, 10^–5 Molar, read-out: Percent growth inhibition. An outline of the steps: as §1
The subject of a further assay is COLO 205. Put plainly: NCI-60 SRB screen. The class given is cell-based. As to conditions: Homo sapiens, 48 h; COLO 205, 10^–5 Molar; read-out: Percent growth inhibition.
Another assay concerns HT29. Description: NCI-60 SRB screen. Type of assay: cell-based. Conditions: Homo sapiens, HT-29; HT29, 10^–5 Molar; read-out: Percent growth inhibition.
A further assay has as its system UACC-257. Description: NCI-60 SRB screen. The class given is cell-based. Conditions: Homo sapiens; UACC-257, 10^–5 Molar; read-out: Percent growth inhibition.
The test system of the next assay is OVCAR-3. Description: NCI-60 SRB screen. The class given is cell-based. As to conditions: Homo sapiens; OVCAR-3, 10^–5 Molar; read-out: Percent growth inhibition.
For the next assay, the system named is TK-10. Put plainly: NCI-60 SRB screen. Type of assay: cell-based. Conditions: Homo sapiens; TK-10, 10^–5 Molar; read-out: Percent growth inhibition.
The subject of the next assay is DU-145. Description: NCI-60 SRB screen. The class given is cell-based. As to conditions: Homo sapiens; DU-145, 10^–5 Molar; read-out: Percent growth inhibition.
The target in a further assay is T1, topoisomerase IIα (Homo sapiens, UniProt P11388).
T1 construct: purchased MBS2885049
Put plainly: Topoisomerase ELISA kit inhibitory assay. Conditions: four concentrations. Type of assay: biochemical. The method, then: Four concentrations were used and IC50 was calculated.
Compound 3a,b,c,e were evaluated for topoisomerase IIα inhibitory activity utilizing the human DNA topoisomerase ELISA kit (MBS2885049) and following the provided procedure: • Standards and the tested compound were dissolved in sample diluent and tenfold serial dilution was achieved. • Biotin-conjugated antibody and avidin conjugated Horseradish Peroxidase (HRP-avidin) were diluted to tenfolds. • 100 µL of each concentration of standard or test compounds were added to each well and incubated at 37 °C for 1 h. • Removal of the liquid in each well was done. • To each well 100 µL of Biotin-conjugated antibody solution was added followed by incubation for 1 h at 37 °C. • The microtiter plate was allowed to aspirate and washed 3 times. • 100 µL of avidin conjugated Horseradish Peroxidase (HRP-avidin) solution was added to each well and incubatation for 1 h at 37 °C was achieved. • The plate was aspirated and washed 5 times. • Addition of 90 µL of 3,3′,5,5′-tetramethylbenzidine (TMB) substrate to each well followed by plate incubated for 30 min at 37 °C and protection from light was done. • 50 µL stop solution was added.

pIC50: −log10 of the molar value.

T1 sequence (P11388 whole entry): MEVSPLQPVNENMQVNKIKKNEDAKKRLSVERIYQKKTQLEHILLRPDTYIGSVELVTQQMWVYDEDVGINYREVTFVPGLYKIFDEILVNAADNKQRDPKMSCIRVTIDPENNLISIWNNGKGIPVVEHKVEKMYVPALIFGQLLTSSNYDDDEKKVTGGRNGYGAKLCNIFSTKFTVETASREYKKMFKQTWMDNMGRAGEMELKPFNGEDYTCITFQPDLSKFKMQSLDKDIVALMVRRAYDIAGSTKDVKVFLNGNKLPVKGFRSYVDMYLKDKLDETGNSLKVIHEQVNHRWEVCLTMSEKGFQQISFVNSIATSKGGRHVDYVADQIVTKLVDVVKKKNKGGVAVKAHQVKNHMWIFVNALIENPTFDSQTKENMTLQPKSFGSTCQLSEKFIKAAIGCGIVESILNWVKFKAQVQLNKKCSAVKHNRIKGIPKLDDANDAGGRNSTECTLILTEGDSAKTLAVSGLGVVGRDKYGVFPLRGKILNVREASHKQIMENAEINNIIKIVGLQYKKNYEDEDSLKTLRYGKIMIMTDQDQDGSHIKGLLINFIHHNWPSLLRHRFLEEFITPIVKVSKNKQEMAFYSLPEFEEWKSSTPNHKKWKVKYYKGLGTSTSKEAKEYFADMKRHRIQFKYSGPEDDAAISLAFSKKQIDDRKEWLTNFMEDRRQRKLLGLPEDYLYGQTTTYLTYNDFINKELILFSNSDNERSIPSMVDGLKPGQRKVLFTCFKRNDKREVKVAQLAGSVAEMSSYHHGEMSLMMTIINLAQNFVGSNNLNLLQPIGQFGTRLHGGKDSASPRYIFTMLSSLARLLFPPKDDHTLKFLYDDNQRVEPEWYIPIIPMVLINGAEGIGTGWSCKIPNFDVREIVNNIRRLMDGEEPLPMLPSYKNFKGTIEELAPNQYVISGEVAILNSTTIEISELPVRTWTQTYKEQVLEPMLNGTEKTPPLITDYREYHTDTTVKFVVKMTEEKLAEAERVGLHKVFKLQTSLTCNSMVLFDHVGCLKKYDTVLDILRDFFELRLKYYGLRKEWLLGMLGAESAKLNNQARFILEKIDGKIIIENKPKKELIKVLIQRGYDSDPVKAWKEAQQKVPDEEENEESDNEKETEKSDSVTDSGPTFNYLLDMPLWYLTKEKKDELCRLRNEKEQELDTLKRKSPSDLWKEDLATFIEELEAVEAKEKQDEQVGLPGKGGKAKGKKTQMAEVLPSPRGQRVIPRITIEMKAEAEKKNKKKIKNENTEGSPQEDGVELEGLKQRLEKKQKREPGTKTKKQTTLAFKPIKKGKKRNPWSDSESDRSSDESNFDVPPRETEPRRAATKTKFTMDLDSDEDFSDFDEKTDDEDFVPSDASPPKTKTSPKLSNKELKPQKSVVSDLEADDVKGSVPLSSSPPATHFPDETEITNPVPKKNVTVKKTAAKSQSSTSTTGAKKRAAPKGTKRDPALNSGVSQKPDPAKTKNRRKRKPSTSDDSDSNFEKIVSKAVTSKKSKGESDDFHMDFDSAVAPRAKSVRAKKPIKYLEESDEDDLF

Regarding `CCn1cc(C(=O)NN=Cc2ccccc2)c(=O)c2cc(F)c(N3CCNC(C)C3)c(F)c21` (centres unmarked) [Compound 3a, N'-Benzylidene-1-ethyl-6,8-difluoro-7-(3-methylpiperazin-1-yl)-4-oxo-1,4-dihydroquinoline-3-carbohydrazide], the inhibition at 10 µM with HL-60(TB) worked out at 81.9%; in the assay with RPMI-8226, 142%; in the assay on IGROV1 it was 42%; in the assay with MDA-MB-435, 188%; in the assay with OVCAR-4 it was 29.3%; in the assay with SK-MEL-28 it was 179%. Also, the inhibition at 10 µM in the assay with SK-MEL-2 worked out at 6.57%; with SN12C, 38.3%; in the assay with COLO 205, 174%; in the assay with HT29, 192%; with UACC-257, 60.4%; in the assay with OVCAR-3 it was 175%. Also, the values for the inhibition at 10 µM with TK-10 and in the assay with DU-145 were 17.3% and 188%, respectively. For the same molecule, the pIC50 against topoisomerase IIα was 5.76.

On to `CCn1cc(C(=O)NN=Cc2cccc(F)c2)c(=O)c2cc(F)c(N3CCNC(C)C3)c(F)c21` (centres unmarked) [Compound 3b, 1-Ethyl-6,8-difluoro-N′-(3-fluorobenzylidene)-7-(3-methylpiperazin-1-yl)-4-oxo-1,4-dihydroquinoline-3-carbohydrazide], for which the inhibition at 10 µM with HL-60(TB) came to 34.5%; in the assay on RPMI-8226, 142%; in the assay with IGROV1 it was 30.6%; in the assay on MDA-MB-435, 175%; with OVCAR-4 it was 76.2%; in the assay on SK-MEL-28, 164%. Besides, the inhibition at 10 µM is 104% in the assay with SN12C; 82.5% in the assay on COLO 205; 187% with HT29; 11% in the assay with UACC-257; 183% with OVCAR-3; 188% in the assay on DU-145. For the same molecule, the pIC50 at topoisomerase IIα was 5.62.

As for `CCn1cc(C(=O)NN=Cc2ccc(Br)cc2)c(=O)c2cc(F)c(N3CCNC(C)C3)c(F)c21` (centres unmarked) [Compound 3c, N'-(4-Bromobenzylidene)-1-ethyl-6,8-difluoro-7-(3-methylpiperazin-1-yl)-4-oxo-1,4-dihydroquinoline-3-carbohydrazide], the inhibition at 10 µM turned out to be 51.3% with HL-60(TB); 115% with RPMI-8226; 28.7% in the assay with IGROV1; 83.3% with MDA-MB-435; 18.3% with OVCAR-4; 8.78% in the assay with SK-MEL-28. The inhibition at 10 µM in the assay on SK-MEL-2 turned out to be 2.32%; in the assay on SN12C it was 47.8%; with COLO 205, 67.9%; in the assay with HT29, 132%; with OVCAR-3, 47.1%; with TK-10, 0.41%. For the same molecule, in the assay with DU-145, the inhibition at 10 µM amounted to 68.6%. The molecule also showed a pIC50 on topoisomerase IIα of 5.77.

In the case of `CCn1cc(C(=O)NN=Cc2cccnc2)c(=O)c2cc(F)c(N3CCNC(C)C3)c(F)c21` (centres unmarked) [Compound 3d, 1-Ethyl-6,8-difluoro-7-(3-methylpiperazin-1-yl)-4-oxo-N'-(pyridin-3-ylmethylene)-1,4-dihydroquinoline-3-carbohydrazide], the inhibition at 10 µM was 30.5% in the assay with HL-60(TB); 13.4% with RPMI-8226; 71.7% in the assay with IGROV1; 49% in the assay on MDA-MB-435; 51.9% in the assay on OVCAR-4; 23.1% in the assay on SK-MEL-28. Moreover, the inhibition at 10 µM amounted to 44.1% in the assay on SK-MEL-2; 69.4% with SN12C; 46.8% in the assay on COLO 205; 56.3% in the assay on HT29; 1.56% in the assay on UACC-257; 59.8% in the assay with OVCAR-3. The inhibition at 10 µM was 29% with TK-10 and 57.5% with DU-145.

Turning to `CCn1cc(C(=O)NN=Cc2cccs2)c(=O)c2cc(F)c(N3CCNC(C)C3)c(F)c21` (centres unmarked) [Compound 3e, 1-Ethyl-6,8-difluoro-7-(3-methylpiperazin-1-yl)-4-oxo-N'-(thiophen-2-ylmethylene)-1,4-dihydroquinoline-3-carbohydrazide], the inhibition at 10 µM turned out to be 137% with RPMI-8226; 33% in the assay on IGROV1; 7.77% in the assay with MDA-MB-435; 23.8% in the assay on OVCAR-4; 10.1% in the assay with SK-MEL-28; 30% with SN12C. In addition, the inhibition at 10 µM in the assay on COLO 205 was determined as 142%; with HT29, 177%; in the assay with OVCAR-3 it was 31.3%; in the assay with TK-10, 16.1%; in the assay on DU-145, 51.7%. Further, the negative-log IC50 (pIC50) against topoisomerase IIα is 6.01.

As for `CCn1cc(C(=O)O)c(=O)c2cc(F)c(N3CCN(CC(=O)Nc4ccccc4)C(C)C3)c(F)c21` (centres unmarked) [Compound 5a, 1-Ethyl-6,8-difluoro-7-(3-methyl-4-(2-oxo-2-(phenylamino)ethyl)piperazin-1-yl)-4-oxo-1,4-dihydroquinoline-3-carboxylic acid], the inhibition at 10 µM in the assay on MDA-MB-435 came to 2.9%; in the assay with OVCAR-4, 17.6%; in the assay with SK-MEL-28, 3%.

Consider `CCn1cc(C(=O)O)c(=O)c2cc(F)c(N3CCN(CC(=O)Nc4ccc(Cl)cc4)C(C)C3)c(F)c21` (centres unmarked) [Compound 5b, 7-(4-(2-((4-Chlorophenyl)amino)-2-oxoethyl)-3-methylpiperazin-1-yl)-1-ethyl-6,8-difluoro-4-oxo-1,4-dihydroquinoline-3-carboxylic acid], for which the inhibition at 10 µM with IGROV1 stood at 0.82%; in the assay on MDA-MB-435 it was 5.85%; in the assay on OVCAR-4 it was 22.2%; in the assay with SK-MEL-28 it was 6.48%; with SN12C it was 2.23%.

Regarding `CCn1cc(C(=O)O)c(=O)c2cc(F)c(N3CCN(C(=O)c4ccccc4)C(C)C3)c(F)c21` (centres unmarked) [Compound 7a, 7-(4-Benzoyl-3-methylpiperazin-1-yl)-1-ethyl-6,8-difluoro-4-oxo-1,4-dihydroquinoline-3-carboxylic acid], the inhibition at 10 µM came out at 3.14% in the assay on IGROV1; 4.07% with MDA-MB-435; 20.5% in the assay on OVCAR-4; 4.44% with SK-MEL-28; 0.16% in the assay on SK-MEL-2; 3.69% in the assay with OVCAR-3. In the assay with TK-10, the inhibition at 10 µM was found to be 13%.

On to `CCn1cc(C(=O)O)c(=O)c2cc(F)c(N3CCN(C(=O)c4ccc(Br)cc4)C(C)C3)c(F)c21` (centres unmarked) [Compound 7b, 7-(4-(4-Bromobenzoyl)-3-methylpiperazin-1-yl)-1-ethyl-6,8-difluoro-4-oxo-1,4-dihydroquinoline-3-carboxylic acid], for which the inhibition at 10 µM in the assay with IGROV1 worked out at 5.97%; with MDA-MB-435, 3.15%; in the assay with OVCAR-4, 16.9%; with SN12C, 1.45%.

As to `CCn1cc(C(=O)O)c(=O)c2cc(F)c(N3CCN(C(=O)c4ccc(Cl)cc4)C(C)C3)c(F)c21` (centres unmarked) [Compound 7c, 7-(4-(4-Chlorobenzoyl)-3-methylpiperazin-1-yl)-1-ethyl-6,8-difluoro-4-oxo-1,4-dihydroquinoline-3-carboxylic acid], the inhibition at 10 µM in the assay with IGROV1 was determined as 1.62%; in the assay on MDA-MB-435, 6.54%; with OVCAR-4, 18.9%; with SK-MEL-28, 2.92%; with SN12C, 3.15%.

Take `CCn1cc(C(=O)O)c(=O)c2cc(F)c(N3CCN(C(=O)c4ccc([N+](=O)[O-])cc4)C(C)C3)c(F)c21` (centres unmarked) [Compound 7d, 1-Ethyl-6,8-difluoro-7-(3-methyl-4-(4-nitrobenzoyl)piperazin-1-yl)-4-oxo-1,4-dihydroquinoline-3-carboxylic acid]: the values for the inhibition at 10 µM in the assay on HL-60(TB), in the assay on OVCAR-4 and in the assay on SN12C were 24.7%, 8.82% and 0.88%, respectively.

Usually inhibition stands for the change of the read-out against control, counted positive when it falls. The term pIC50 denotes the IC50 on a negative log10 scale, so that one unit is a factor of ten. Higher therefore signals a small IC50.
